# Results as given in publication PMC6271731, “Multitarget Molecular Hybrids of Cinnamic Acids” (Molecules, 2014).
# System: not listed separately
# Test: Inhibition of linoleic acid lipid peroxidation (AAPH)
# Settings: % inhibition at 100 μM; pH 7.4, 37 °C
# Method: Production of conjugated diene hydroperoxide by oxidation of sodium linoleate in an aqueous dispersion is monitored at 234 nm. AAPH is used as a free radical initiator [12, 24]. Ten microlitres of the 16 mM sodium linoleate solution was added to the UV cuvette containing 930 μL of 0.05 M phosphate buffer, pH 7.4 prethermostated at 37 °C. The oxidation reaction was initiated at 37 °C under air by the addition of 40 mM AAPH solution (50 μL). Ten μL of the tested compounds were added in the mixture. Lipid oxidation was measured in the presence of the same level of DMSO. The rate of oxidation at 37 °C was monitored by recording the increase in absorption at 234 nm caused by conjugated diene hydroperoxides. The results were compared to the appropriate standard inhibitor trolox (63%) (Table 1).
row,SMILES,AAPH % (% inhibition of lipid peroxidation)
1,"O=C(/C=C/c1cccc(Oc2ccccc2)c1)Oc1ccc2ccc(=O)oc2c1 [Compound 2c, (E)-2-Oxo-2H-chromen-7-yl 3-(3-phenoxyphenyl)acrylate]",93%
2,O=C(O)/C=C/c1ccccc1 [I],78%
3,"Cc1cc(=O)oc2cc(OC(=O)/C=C/c3ccc(OCc4ccc(Br)cc4)cc3)ccc12 [Compound 3b, (E)-4-Methyl-2-oxo-2H-chromen-7-yl-3-(4-((4-bromobenzyl)oxy)phenyl)acrylate]",90%
4,"O=C(/C=C/c1cccc(Oc2ccccc2)c1)Nc1ccc(O)cc1 [Compound 2f, (E)-N-(4-Hydroxyphenyl)-3-(3-phenoxyphenyl)acrylamide]",100%
5,"Nc1cccc(O)c1 [m-AP, m-aminophenol, reference compound]",95%
6,"O=c1ccc2ccc(O)cc2o1 [Compound 7-HC, 7-hydroxycoumarin, reference compound]",92%
7,"CC(=O)Nc1ccc(OC(=O)/C=C/c2cccs2)cc1 [Compound 4a, (E)-4-Acetamidophenyl 3-(thiophen-2-yl)acrylate]",95%
8,O=C(/C=C/c1cccc(Oc2ccccc2)c1)Nc1cccc(OC(=O)/C=C/c2cccc(Oc3ccccc3)c2)c1 [Compound 2g],60%

# Molecular target: T1, pancreatic bovine trypsin (Bos taurus, UniProt P00760)
# T1 construct: purchased Sigma Chemical, Co. (St. Louis, MO, USA)
# T1 sequence (P00760 24-246): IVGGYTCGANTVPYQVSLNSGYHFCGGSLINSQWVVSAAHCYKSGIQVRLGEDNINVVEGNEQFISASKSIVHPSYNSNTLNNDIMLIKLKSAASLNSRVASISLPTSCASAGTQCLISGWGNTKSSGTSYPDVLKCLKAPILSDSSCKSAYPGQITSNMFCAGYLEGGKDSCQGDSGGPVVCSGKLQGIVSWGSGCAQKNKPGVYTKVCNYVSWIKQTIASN
# Test: Inhibition of trypsin induced proteolysis in vitro
# Type: biochemical
# Settings: % inhibition at 100 μM
# Text: All chemicals, solvents, chemical and biochemical reagents were of analytical grade and purchased from commercial sources (Merck, Merck KGaA, Darmstadt, Germany, Fluka Sigma-Aldrich Laborchemikalien GmbH, Hannover, Germany, Alfa Aesar, Karlsruhe, Germany and Sigma, St. Louis, MO, USA). Soybean lipoxygenase, pancreatic bovine trypsin, sodium linoleate, free radical DPPH and 2,2-azinobis-2-methyl-propanimidamine HCl (AAPH) were obtained from Sigma Chemical, Co. (St. Louis, MO, USA), carrageenin, type K, was commercially available. All starting materials were obtained from commercial sources and used without further purification.
# The test was carried out according to a modified Kunitz method. Bovine albumin was used as substrate for trypsin. The reaction mixture consisted of 0.075 mg/mL trypsin (200 μL) and 780 μL of phosphate buffer pH 7.6 (including the tested compounds (20 μL in DMSO, final concentration 100 μM) preincubated at 37 °C for 20 min and then 1 mL of albumin (stock solution 6 g/100 mL in phosphate buffer 0.1 M, pH 7.6) was added and incubated at 37 °C for 30 min. After the incubation 1 mL of 5% trichloroacetic acid was added to the incubated solution to stop the enzyme’s reaction and allowed to set at room temperature for 1 h. Then the solution was filtered by filter paper and the absorption of the filtered solution was measured at 280 nm. Salicylic acid was used as a reference compound (Table 1).
row,% Trypsin Inh.,SMILES
1,90%,"Nc1cccc(O)c1 [m-AP, m-aminophenol, reference compound]"

# Same assay, conditions: % inhibition at 100 μM; read-out: % Trypsin Inh.
row,inhibition at 100 µM,SMILES
1,13%,"O=c1ccc2ccccc2o1 [Coumarin, reference compound]"

# Same assay, conditions: bovine albumin substrate, pH 7.6, 37 °C
row,IC50 μM Trypsin Inh.,SMILES
1,low or no activity,"CC(=O)Nc1ccc(OC(=O)/C=C/c2cccs2)cc1 [Compound 4a, (E)-4-Acetamidophenyl 3-(thiophen-2-yl)acrylate]"

# Same assay, conditions: bovine albumin substrate, pH 7.6, 37 °C; read-out: IC50 μM Trypsin Inh.
row,SMILES,IC50
1,"O=C(/C=C/c1cccc(Oc2ccccc2)c1)Oc1ccc2ccc(=O)oc2c1 [Compound 2c, (E)-2-Oxo-2H-chromen-7-yl 3-(3-phenoxyphenyl)acrylate]",10 µM
2,O=C(O)/C=C/c1ccccc1 [I],55 µM
3,"Cc1cc(=O)oc2cc(OC(=O)/C=C/c3ccc(OCc4ccc(Br)cc4)cc3)ccc12 [Compound 3b, (E)-4-Methyl-2-oxo-2H-chromen-7-yl-3-(4-((4-bromobenzyl)oxy)phenyl)acrylate]",5 µM
4,"O=C(/C=C/c1cccc(Oc2ccccc2)c1)Nc1ccc(O)cc1 [Compound 2f, (E)-N-(4-Hydroxyphenyl)-3-(3-phenoxyphenyl)acrylamide]",26 µM
5,"O=c1ccc2ccc(O)cc2o1 [Compound 7-HC, 7-hydroxycoumarin, reference compound]",100 µM
6,O=C(/C=C/c1cccc(Oc2ccccc2)c1)Nc1cccc(OC(=O)/C=C/c2cccc(Oc3ccccc3)c2)c1 [Compound 2g],43.6 µM

# System: acetic acid-induced writhing
# Test: Antinociceptive screen (writhing test)
# Type: in vivo, Wistar rats
# Settings: Rattus norvegicus, ip, 0.5 h, i.p. 30 min before 0.6% acetic acid, writhes counted over 30 min, read-out: % ANA (in vivo analgesic-antinociceptive activity)
# Method: Anti-inflammatory tests were conducted on Fisher-344 inbred rats of ca. 200 g body weight whereas antinociception and motor and sensory functions after sciatic nerve crash were performed on Wistar rats. Both sexes were used. Females pregnant were excluded. Each group was composed of 6 animals. The animals, which have been bred in our laboratory, were housed under standard conditions and received a diet of commercial food pellets and water ad libitum during the maintenance. Our studies were carried out in accordance with recognised guidelines on animal experimentation.
# […] Controls received the liquid vehicle only. All the in vivo experiments were repeated at least in triplicate and were subjected to statistic analysis using the student’s t-test.
# The writhing reflex was used. The test compounds were administered i.p. 30 min prior to the i.p. administration of 1 mL/100 g body weight of 0.6% acetic acid. […] After 5 min, the number of stretches characterized by repeated contractions of the abdominal musculature accompanied by extension of the hind limbs was counted every 5 min for the next 30 min. […] The % antinociceptive activity (a:a) was calculated as: % a:a = (n − n'/n) × 100 (a: a analgesic activity, n average number of writhes of control group, n' average number in the test group).
row,SMILES,inhibition in vivo at 0.01 mmol/0.1 kg
1,"O=C(/C=C/c1cccc(Oc2ccccc2)c1)Oc1ccc2ccc(=O)oc2c1 [Compound 2c, (E)-2-Oxo-2H-chromen-7-yl 3-(3-phenoxyphenyl)acrylate]",70.4%
2,O=C(O)/C=C/c1ccccc1 [I],60.2%

# System: not listed separately
# Test: Lipophilicity as RM values by RP-TLC
# Type: physicochemical
# Settings: methanol/water 70/30, 24 °C, average of at least five measurements
# Text: Since lipophilicity is a significant physicochemical property determining distribution, bioavailability, metabolic activity and elimination, we tried to determine experimentally the lipophilicity of the new substances by a RPTLC method as RM values (Table 1) and to compare them with the corresponding theoretically calculated clog p values in n-octanol-buffer. This is considered to be a reliable, fast and convenient method for expressing lipophilicity. Lipophilicity (Table 2), was theoretically calculated as Clog p values in n-octanol-buffer by the CLOGP Programme of Biobyte Corp..
# Reversed phase TLC (RP-TLC) was performed on silica gel plates impregnated with 5% (v/v) liquid paraffin in light petroleum ether. The mobile phase was a methanol/water mixture (70/30, v/v). The plates were developed in closed chromatography tanks saturated with the mobile phase at 24 °C. Spots were detected under UV light. RM values were determined from the corresponding Rf values (from five individual measurements) using the equation RM = log [(1/Rf) − 1] (Table 1).
row,SMILES,RM (±S.D.)
1,"O=C(/C=C/c1cccc(Oc2ccccc2)c1)Oc1ccc2ccc(=O)oc2c1 [Compound 2c, (E)-2-Oxo-2H-chromen-7-yl 3-(3-phenoxyphenyl)acrylate]",0.444 ±0.008
2,O=C(O)/C=C/c1ccccc1 [I],−0.485 ± 0.044
3,"Cc1cc(=O)oc2cc(OC(=O)/C=C/c3ccc(OCc4ccc(Br)cc4)cc3)ccc12 [Compound 3b, (E)-4-Methyl-2-oxo-2H-chromen-7-yl-3-(4-((4-bromobenzyl)oxy)phenyl)acrylate]",−0.602 ± 0.01
4,"O=C(/C=C/c1cccc(Oc2ccccc2)c1)Nc1ccc(O)cc1 [Compound 2f, (E)-N-(4-Hydroxyphenyl)-3-(3-phenoxyphenyl)acrylamide]",−0.116 ± 0.003
5,"CC(=O)Nc1ccc(OC(=O)/C=C/c2cccs2)cc1 [Compound 4a, (E)-4-Acetamidophenyl 3-(thiophen-2-yl)acrylate]",−0.826 ± 0.05
6,O=C(/C=C/c1cccc(Oc2ccccc2)c1)Nc1cccc(OC(=O)/C=C/c2cccc(Oc3ccccc3)c2)c1 [Compound 2g],1.092 ± 0.044

# Molecular target: T2, soybean lipoxygenase (Glycine max, UniProt P08170)
# T2 construct: purchased Sigma Chemical, Co. (St. Louis, MO, USA)
# T2 sequence (P08170 1-839): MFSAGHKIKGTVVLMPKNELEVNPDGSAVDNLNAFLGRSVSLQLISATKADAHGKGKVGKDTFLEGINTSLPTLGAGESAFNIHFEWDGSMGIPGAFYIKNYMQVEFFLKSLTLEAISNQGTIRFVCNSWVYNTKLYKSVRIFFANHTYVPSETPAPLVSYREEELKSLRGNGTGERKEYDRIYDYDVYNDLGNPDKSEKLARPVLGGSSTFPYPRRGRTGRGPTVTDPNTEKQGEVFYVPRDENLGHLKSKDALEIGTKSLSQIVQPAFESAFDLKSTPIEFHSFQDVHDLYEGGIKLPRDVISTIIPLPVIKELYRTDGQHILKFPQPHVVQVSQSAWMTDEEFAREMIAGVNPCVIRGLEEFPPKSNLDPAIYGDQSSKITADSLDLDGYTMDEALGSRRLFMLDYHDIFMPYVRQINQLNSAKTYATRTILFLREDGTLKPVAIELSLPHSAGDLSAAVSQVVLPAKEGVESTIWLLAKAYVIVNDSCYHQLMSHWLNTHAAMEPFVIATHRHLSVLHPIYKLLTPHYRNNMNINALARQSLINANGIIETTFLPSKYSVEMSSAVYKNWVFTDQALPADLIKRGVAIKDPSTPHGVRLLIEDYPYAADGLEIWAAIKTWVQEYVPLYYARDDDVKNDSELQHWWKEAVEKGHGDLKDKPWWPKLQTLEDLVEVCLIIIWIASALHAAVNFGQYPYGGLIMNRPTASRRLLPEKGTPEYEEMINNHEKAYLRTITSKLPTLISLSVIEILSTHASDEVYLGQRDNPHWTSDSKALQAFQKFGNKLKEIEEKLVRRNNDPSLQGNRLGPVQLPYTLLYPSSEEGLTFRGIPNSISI
# Test: Soybean lipoxygenase inhibition in vitro
# Type: biochemical
# Settings: not given
# Method: DMSO solution of the tested compound was incubated with sodium linoleate (0.1 mM) and 0.2 mL of soybean lipoxygenase solution (1/9 × 10^−4 w/v in saline) in buffer pH 9 (tris) and at room temperature. […] The results are given in Table 1 expressed as IC50 values or % inhibition at 100 μM.
row,SMILES,IC50
1,O=C(O)/C=C/c1ccccc1 [I],56 µM
2,"Cc1cc(=O)oc2cc(OC(=O)/C=C/c3ccc(OCc4ccc(Br)cc4)cc3)ccc12 [Compound 3b, (E)-4-Methyl-2-oxo-2H-chromen-7-yl-3-(4-((4-bromobenzyl)oxy)phenyl)acrylate]",50 µM
3,O=C(/C=C/c1cccc(Oc2ccccc2)c1)Nc1cccc(OC(=O)/C=C/c2cccc(Oc3ccccc3)c2)c1 [Compound 2g],72 µM

# Same assay, conditions: % inhibition at 100 μM; read-out: % LOX Inh.
row,inhibition at 100 µM,SMILES
1,20%,"O=C(/C=C/c1cccc(Oc2ccccc2)c1)Oc1ccc2ccc(=O)oc2c1 [Compound 2c, (E)-2-Oxo-2H-chromen-7-yl 3-(3-phenoxyphenyl)acrylate]"
2,16%,"CC(=O)Nc1ccc(OC(=O)/C=C/c2cccs2)cc1 [Compound 4a, (E)-4-Acetamidophenyl 3-(thiophen-2-yl)acrylate]"

# Same assay, conditions: sodium linoleate 0.1 mM, tris buffer pH 9, room temperature
row,IC50 μM LOX Inh.,SMILES
1,low or no activity,"O=C(/C=C/c1cccc(Oc2ccccc2)c1)Oc1ccc2ccc(=O)oc2c1 [Compound 2c, (E)-2-Oxo-2H-chromen-7-yl 3-(3-phenoxyphenyl)acrylate]"
2,low or no activity,"O=C(/C=C/c1cccc(Oc2ccccc2)c1)Nc1ccc(O)cc1 [Compound 2f, (E)-N-(4-Hydroxyphenyl)-3-(3-phenoxyphenyl)acrylamide]"
3,low or no activity,"CC(=O)Nc1ccc(OC(=O)/C=C/c2cccs2)cc1 [Compound 4a, (E)-4-Acetamidophenyl 3-(thiophen-2-yl)acrylate]"
